Experimental data from patent US20130109572A1, “HERBICIDAL COMPOSITIONS AND METHODS OF USE” (The Board of Trustees of the University of Alabama, priority 2010, published 2013).

How the values were obtained:
[1] = tested on: white mustard (Sinapis alba L.); assay: Growth chamber spray test, fresh mass of white mustard (Mecoprop ionic liquids); type: in vivo; details: 0.001 M spray in water/ethanol (1:2), 200 L/ha, 2 weeks after application; for Reduction of fresh mass (%): vs unsprayed control
Procedure: The research was conducted under controlled environmental conditions in a dedicated growth chamber. The test plant was white mustard (Sinapis alba L.). Seeds were sown into soil-filled containers equal to the depth of 1 cm. After producing first leave, only 5 plants were allowed to stay in each pot. After producing the 3rd leaf, the plants were sprayed with the ionic liquids studied using a Tee Jet 1102 sprayer, the sprayer moving above the plants at a constant speed of 3.1 m/s. The spray distance from the tips of the plant was 40 cm, the pressure of liquid in sprayer was 0.2 MPa, and a liquid in the expenditure per 1 ha was 200 L.
Examples of the ionic liquids described herein were dissolved in a solution of water and ethanol (1:2) in an amount corresponding to a concentration of 0.001 mol/L, or 0.533 g/L [DDA][MCPP-P], 0.520 g/L [BA][MCPP-P], and 0.546 g/L [DOM] [MCPP-P]. As a comparison, a commercial product containing 600 g of the herbicide Mecoprop-P in 1 L was used. After spraying the plants, the pots were placed back in a growth chamber at a temperature of 20° C. (±2° C.) and humidity of 50%. The illumination time was 16 hours per day.
After a period of 2 weeks, the plants were cut to the soil level and weighed (0.1 g accuracy). A study was carried out in 4 replications in a completely randomized setup. The reduction of plant fresh weight as compared to control (no sprayed plants) was measured.

[2] = tested on: common poppy (Papaver rhoeas); assay: Growth chamber spray test, fresh weight reduction (Glyphosate ionic liquids); type: in vivo; details: 0.01 mol/L in water; 2 WAT
Procedure: Experiment in growth chamber: Temperature—20° C., humidity—60%, photoperiod (day/night hours)—16/8. The research was conducted under controlled environmental conditions in a dedicated growth chamber. The test plant was common poppy (Papaver rhoeas). The seeds were sown into soil-filled containers equal to the depth of 0.1 cm. After producing leaves, only 1 plant was allowed to stay in each pot. After producing the rosette, the plants were sprayed with the ionic liquids using a sprayer with Tee Jet 1102 nozzles. The sprayer was moving above the plants at a constant speed of 3.1 m/s. The spray distance from the tips of the plant was 40 cm, the pressure of liquid in sprayer was 0.2 MPa, and the liquid in the expenditure per 1 ha was 200 L.
The ionic liquids were dissolved in water in an amount corresponding to a concentration of 0.01 mol/L or 4.94 g/L [DDA][Glyphosate], 4.88 g/L [BA][Glyphosate]. As a comparison, a commercial product ROUNDUP™ containing 360 g of Glyphosate in 1 L was used. After spraying the plants, the pots were placed back in a growth chamber at a temperature of 20° C. (±2° C.) and humidity of 60%. The illumination time was 16 hours per day.
After a period of 2 weeks, the plants were cut right to the soil level and weighed (0.1 g accuracy). Fresh weight was used as the effect parameter. […]

[3] = tested on: rat; details: cited from earlier work
[4] = tested on: cornflower (Centaurea cyanus); assay: Field test, visual effectiveness of weed eradication; type: in vivo; details: field plots, 4 WAT, mean estimate, solutions of 0.01 and 0.02 mol/dm^3, 100% = complete destruction
Procedure: (§1) Field test. The research was conducted in the Field Experimental Station of the Institute of Plant Protection in Winna Gora on the plots of dimensions 1.5 m×5 m. The test plants were common lambsquarters (Chenopodium album) and cornflower (Centaurea cyanus). The investigated ion pairs were alkyltrimethylammonium 3,6-dichloro-2-methoxybenzoate ([ATMA][Dicamba]) and didecyldimethylammonium 3,6-dichloro-2-methoxybenzoate ([DDA][Dicamba]).
(§2) Solutions of investigated ion pairs were prepared as follows: alkyltrimethylammonium 3,6-dichloro-2-methoxybenzoate [ATMA][Dicamba] and didecyldimethylammonium 3,6-dichloro-2-methoxybenzoate [DDA][Dicamba] were dissolved in a mixture of water and ethanol (1:1) in an amount corresponding to a concentration of 0.01 and 0.02 mol/dm^3. […] As controls, objects with no treatment were used and sprayed only with a solution of water and ethanol (1:1).
(§3) The procedures were performed using a sprayer equipped with a flat stream nozzles type Tee Jet 110 03 XR, with a steady pressure of 0.2 MPa and the expense of the liquid in use in 200 L per 1 hectare. During the procedure, the following weeds were at following developmental phases: common lambsquarters—from 4 to 10 leaves; and cornflower—a fully-formed rosette.
(§4) The effectiveness of weed eradication was evaluated visually by comparing the state of weeds on each plot treated with [DDA][Dicamba] and control solution.

[5] = tested on: common lambsquarters (Chenopodium album); assay: as above; type: in vivo; details: field plots, 4 WAT, mean estimate, solutions of 0.01 and 0.02 mol/dm^3, 100% = complete destruction
Procedure: as §1, §2, §3, §4

[6] = tested on: white mustard (Sinapis alba); assay: Growth chamber spray test, fresh weight reduction (Dicamba ionic liquid); type: in vivo; details: for Fresh weight reduction (%) Sinapis alba: 2 WAT
[7] = tested on: common lambsquarters (Chenopodium album); assay: as above; type: in vivo; details: 2 WAT
[8] = 0.001 mole/L in water/DMSO (2:1)
[9] = 0.002 mole/L in water/DMSO (2:1)
[10] = 0.004 mole/L in water/DMSO (2:1)

Q: Which results are given for “Benzalkonium (±)-2-(4-chloro-2-methylphenoxy)propionate [[BA][MCPP]]”?
A: Fresh mass of white mustard [1]: 5.13 g; Reduction of fresh mass (%) [1]: 57.8%

Q: For “Domiphen (+)-(R)-2-(4-chloro-2-methylphenoxy)propionate [[DOM][MCPP-P]]”, which “Fresh mass of white mustard” value [1] is on record?
A: Its value is 4.08 g.

Q: And the “Reduction of fresh mass (%)” value [1]?
A: Its value is 66.5%.

Q: Which “Fresh weight reduction of Papaver rhoeas (%)” value [2] does the source give for “Didecyldimethylammonium Glyphosate [[DDA][Glyphosate]]” here?
A: The value was 78.3%.

Q: Which “rat LD50” value [3] does the source give for `O=C(O)COc1ccc(Cl)cc1Cl` [Example 2.4-D, 2,4-dichlorophenoxyacetic acid] here?
A: Its value is 639 to 764 mg/kg.

Q: For “Didecyldimethylammonium (+)-(R)-2-(4-chloro-2-methylphenoxy)propionate [[DDA][MCPP-P]]”, which “Fresh mass of white mustard” value [1] is on record?
A: Its value is 4.78 g.

Q: What about the “Reduction of fresh mass (%)” value [1] of the same compound?
A: Its value is 60.7%.

Q: Which “Effectiveness of Weed Eradication (%) Centaurea cyanus” value [4] does the source give for “Didecyldimethylammonium 3,6-dichloro-2-methoxybenzoate [[DDA][Dicamba]]” here?
A: The value was 95%.

Q: What about the “Effectiveness of Weed Eradication (%) Chenopodium album” value [5] of the same compound?
A: Its value is 92%.

Q: And the “Fresh weight reduction (%) Sinapis alba” value [6, 8]?
A: Its value is 6.8%.

Q: And the “Fresh weight reduction (%) Sinapis alba” value [6, 9]?
A: The value was 18.5%.

Q: And the “Fresh weight reduction (%) Sinapis alba” value [6, 10]?
A: The value was 27.1%.

Q: What about the “Effect on the weight of Sinapis alba compared with neutral Dicamba” value ([6]; growth chamber, preliminary comparison) of the same compound?
A: The value was “substantially more active than neutral Dicamba”.

Q: And the “Fresh weight reduction (%) Chenopodium album” value [7, 8]?
A: The value was 16.7%.

Q: And the “Fresh weight reduction (%) Chenopodium album” value [7, 9]?
A: Its value is 41.7%.

Q: And the “Fresh weight reduction (%) Chenopodium album” value [7, 10]?
A: The value was 45.7%.

Q: With `Cc1cc(Cl)ccc1OCC(=O)O` [MCPA, 4-chloro-2-methylphenoxyacetic acid] as the compound, how does the “rat LD50” value [3] read?
A: Its value is 962 to 1470 mg/kg.

Q: For “Benzalkonium Glyphosate [[BA][Glyphosate]]”, which “Fresh weight reduction of Papaver rhoeas (%)” value [2] is on record?
A: Its value is 84.0%.
